Active and inactive are the calls of the source.

We go through one compound from ChEMBL document CHEMBL1201862, “PubChem BioAssay data set” (2004).

Format in all cases: functional
The target of assay [1] is Tyrosine-protein kinase Fer (Homo sapiens, UniProt P16591).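 Further: FER tested as one member of a kinome panel.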
Assay [2] addresses Serine/threonine-protein kinase MRCK alpha (Homo sapiens, UniProt Q5VT25).
Assay [3] concerns the target Tyrosine-protein kinase Blk (Homo sapiens, UniProt P51451).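 Further: obtained as one member of a kinome-wide kinase assay panel.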
Assay [4] concerns the target Glycogen synthase kinase-3 beta (Homo sapiens, UniProt P49841).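 Further: value comes from a broad kinome profiling panel, with GSK3B as the panel member.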

Chain of Tyrosine-protein kinase Blk (P51451 whole entry): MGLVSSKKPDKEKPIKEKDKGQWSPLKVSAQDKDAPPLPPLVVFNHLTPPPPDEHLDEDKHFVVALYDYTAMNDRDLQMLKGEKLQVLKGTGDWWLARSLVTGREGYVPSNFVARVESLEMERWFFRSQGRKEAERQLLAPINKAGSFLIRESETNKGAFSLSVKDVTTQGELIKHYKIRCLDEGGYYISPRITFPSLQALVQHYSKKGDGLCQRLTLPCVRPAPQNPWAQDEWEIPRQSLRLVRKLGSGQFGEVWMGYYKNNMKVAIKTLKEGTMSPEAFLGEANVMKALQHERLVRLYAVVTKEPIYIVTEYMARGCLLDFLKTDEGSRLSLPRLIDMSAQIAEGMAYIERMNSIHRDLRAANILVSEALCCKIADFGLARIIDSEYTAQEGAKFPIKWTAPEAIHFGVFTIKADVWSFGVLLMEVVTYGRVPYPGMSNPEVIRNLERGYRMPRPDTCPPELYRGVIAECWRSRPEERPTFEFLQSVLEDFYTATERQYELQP
Chain of Glycogen synthase kinase-3 beta (P49841 whole entry): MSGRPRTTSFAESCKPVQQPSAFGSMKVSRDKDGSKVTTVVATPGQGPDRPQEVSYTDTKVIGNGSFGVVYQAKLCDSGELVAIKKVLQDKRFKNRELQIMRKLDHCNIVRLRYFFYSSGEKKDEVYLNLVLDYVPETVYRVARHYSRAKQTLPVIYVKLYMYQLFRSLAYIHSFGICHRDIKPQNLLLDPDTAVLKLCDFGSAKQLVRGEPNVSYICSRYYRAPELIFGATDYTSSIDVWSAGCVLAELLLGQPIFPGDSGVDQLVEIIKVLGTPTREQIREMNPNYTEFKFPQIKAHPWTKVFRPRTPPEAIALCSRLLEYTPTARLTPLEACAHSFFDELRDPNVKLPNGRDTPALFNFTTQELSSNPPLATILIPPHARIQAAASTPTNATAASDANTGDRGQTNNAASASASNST
Chain of Tyrosine-protein kinase Fer (P16591 whole entry): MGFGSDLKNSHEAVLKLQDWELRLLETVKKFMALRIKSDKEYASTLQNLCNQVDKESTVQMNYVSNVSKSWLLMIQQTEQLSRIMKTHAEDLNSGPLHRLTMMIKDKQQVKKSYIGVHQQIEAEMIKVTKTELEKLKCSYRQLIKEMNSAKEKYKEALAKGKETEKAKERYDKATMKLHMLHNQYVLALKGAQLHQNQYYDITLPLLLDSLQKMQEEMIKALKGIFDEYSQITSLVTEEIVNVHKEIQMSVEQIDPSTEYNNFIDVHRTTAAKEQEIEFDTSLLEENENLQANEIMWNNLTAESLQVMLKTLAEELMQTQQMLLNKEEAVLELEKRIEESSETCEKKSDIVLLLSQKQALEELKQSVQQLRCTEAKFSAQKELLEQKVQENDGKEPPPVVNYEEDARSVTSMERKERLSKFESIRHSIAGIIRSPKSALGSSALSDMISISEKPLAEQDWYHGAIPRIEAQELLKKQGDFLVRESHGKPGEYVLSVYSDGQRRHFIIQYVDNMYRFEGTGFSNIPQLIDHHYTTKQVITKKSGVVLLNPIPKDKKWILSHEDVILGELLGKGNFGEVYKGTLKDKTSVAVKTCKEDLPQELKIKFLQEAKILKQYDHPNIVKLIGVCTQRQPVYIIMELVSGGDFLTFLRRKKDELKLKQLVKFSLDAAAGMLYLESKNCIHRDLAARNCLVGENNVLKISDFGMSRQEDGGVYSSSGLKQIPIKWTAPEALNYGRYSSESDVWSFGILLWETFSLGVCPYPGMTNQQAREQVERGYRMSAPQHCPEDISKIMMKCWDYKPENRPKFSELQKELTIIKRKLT
Chain of Serine/threonine-protein kinase MRCK alpha (Q5VT25 whole entry): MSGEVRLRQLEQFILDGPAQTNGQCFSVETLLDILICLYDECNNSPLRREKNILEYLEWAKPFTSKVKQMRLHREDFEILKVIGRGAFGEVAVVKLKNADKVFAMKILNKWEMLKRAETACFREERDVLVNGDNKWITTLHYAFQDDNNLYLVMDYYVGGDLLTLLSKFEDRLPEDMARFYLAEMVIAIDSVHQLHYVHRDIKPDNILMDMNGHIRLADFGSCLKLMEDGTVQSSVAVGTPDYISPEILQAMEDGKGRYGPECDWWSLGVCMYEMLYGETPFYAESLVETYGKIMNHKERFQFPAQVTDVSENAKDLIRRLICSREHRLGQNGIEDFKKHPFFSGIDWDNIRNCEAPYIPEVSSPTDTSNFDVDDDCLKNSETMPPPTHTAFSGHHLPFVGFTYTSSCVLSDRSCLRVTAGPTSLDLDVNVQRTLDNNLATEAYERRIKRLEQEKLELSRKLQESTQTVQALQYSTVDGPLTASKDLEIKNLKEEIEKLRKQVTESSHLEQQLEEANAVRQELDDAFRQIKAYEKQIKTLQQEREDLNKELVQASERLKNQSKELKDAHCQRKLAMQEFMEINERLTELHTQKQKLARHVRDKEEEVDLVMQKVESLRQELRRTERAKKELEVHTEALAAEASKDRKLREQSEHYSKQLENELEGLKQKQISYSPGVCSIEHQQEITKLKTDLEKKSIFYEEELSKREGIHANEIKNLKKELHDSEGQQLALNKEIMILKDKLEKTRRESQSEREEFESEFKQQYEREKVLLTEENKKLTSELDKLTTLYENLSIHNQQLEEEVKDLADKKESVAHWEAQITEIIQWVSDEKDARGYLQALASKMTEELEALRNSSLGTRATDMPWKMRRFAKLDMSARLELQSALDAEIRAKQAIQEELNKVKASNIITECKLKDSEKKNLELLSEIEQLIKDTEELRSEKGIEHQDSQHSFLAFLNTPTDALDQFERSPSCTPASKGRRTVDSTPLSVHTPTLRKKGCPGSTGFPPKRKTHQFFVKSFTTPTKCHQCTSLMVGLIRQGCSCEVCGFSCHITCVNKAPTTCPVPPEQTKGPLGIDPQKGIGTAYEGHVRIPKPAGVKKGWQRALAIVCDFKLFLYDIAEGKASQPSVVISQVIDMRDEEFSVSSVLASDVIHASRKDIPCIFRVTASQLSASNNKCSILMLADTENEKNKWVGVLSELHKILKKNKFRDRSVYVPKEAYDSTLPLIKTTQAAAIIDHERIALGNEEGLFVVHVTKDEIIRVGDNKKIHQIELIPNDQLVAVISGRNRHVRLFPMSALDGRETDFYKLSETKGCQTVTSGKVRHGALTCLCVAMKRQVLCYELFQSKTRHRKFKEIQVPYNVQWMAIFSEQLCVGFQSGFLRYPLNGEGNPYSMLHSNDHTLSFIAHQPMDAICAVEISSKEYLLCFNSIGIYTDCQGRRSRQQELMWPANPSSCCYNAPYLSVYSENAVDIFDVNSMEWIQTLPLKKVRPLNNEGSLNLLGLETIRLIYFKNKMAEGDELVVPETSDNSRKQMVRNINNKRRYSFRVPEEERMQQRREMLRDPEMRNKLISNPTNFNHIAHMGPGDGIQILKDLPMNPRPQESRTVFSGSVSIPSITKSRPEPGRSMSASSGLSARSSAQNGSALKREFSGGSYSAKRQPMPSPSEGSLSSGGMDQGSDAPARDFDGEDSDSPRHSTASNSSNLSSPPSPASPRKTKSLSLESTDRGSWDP

Consider `O=C1Nc2ccc3ncsc3c2C1=CNc1ccc(S(=O)(=O)Nc2ccccn2)cc1`, for which the Ki (commonly a dissociation constant, usually derived from enzyme kinetics or from competition with a known ligand) in assay [1] was 1260 nM (active); in assay [2], > 10000 nM (inactive); in assay [3] it was 158 nM (active); in assay [4] it was 3.16 nM (active).
